pEC50: −log10 of the molar value.
What follows are compounds tested on PC-3 cells (assay: PC-3 Oxygen Rate Consumption (OCR) Assay). Details: Homo sapiens, 0.05 h, medium with 2% FBS, OCR at 3-min post-injection normalized to % increase over DMSO-treated cells, concentration for half-maximal OCR increase, read-out: EC50-PC3-OCR-FBS-3min.
Type: cell-based
In short: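 Oxygen consumption read on Seahorse XFe96: three basal measurements, then compound injection and 10 cycles over 30 min. EC50 defined as concentration giving half-maximal OCR rise, using 3-min post-injection values as % above DMSO controls, six replicates per treatment, in PC-3 cells in glucose/pyruvate medium.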
Compound `COCCOc1ccc(S(=O)(=O)Nc2cc(C(F)(F)F)ccc2C(=O)NC23CC(C(F)(F)F)(C2)C3)cc1` [Example 112, 2-((4-(2-methoxyethoxy)phenyl)sulfonamido)-4-(trifluoromethyl)-N-(3-(trifluoromethyl)bicyclo[1.1.1]pentan-1-yl)benzamide] has a pEC50 of 5.89. `CS(=O)(=O)c1ccc(S(=O)(=O)Nc2cc(S(F)(F)(F)(F)F)ccc2C(=O)NC23CC(C(F)(F)F)(C2)C3)cc1` [Example 154, 2-((4-(methylsulfonyl)phenyl)sulfonamido)-4-(pentafluoro-λ^6-sulfanyl)-N-(3-(trifluoromethyl)bicyclo[1.1.1]pentan-1-yl)benzamide] showed a pEC50 of 5.10. `N#CC12CCC(NC(=O)c3cc(C(F)(F)F)ccc3NS(=O)(=O)c3ccc(F)cc3)(CC1)CC2` [Example 119, N-(4-cyanobicyclo[2.2.2]octan-1-yl)-2-((4-fluorophenyl)sulfonamido)-5-(trifluoromethyl)benzamide] showed a pEC50 of 5.90. For `N#CC12CCC(NC(=O)c3cc(Cl)ccc3NS(=O)(=O)C3(C#N)CC3)(CC1)CC2` [Example 211, 5-chloro-N-(4-cyanobicyclo[2.2.2]octan-1-yl)-2-((1-cyanocyclopropane)-1-sulfonamido)benzamide], the pEC50 was 4.81. In the case of `CN(C)S(=O)(=O)Nc1cc(F)ccc1C(=O)NC12CC(C(F)(F)F)(C1)C2` [Example 188, 2-((N,N-dimethylsulfamoyl)amino)-4-fluoro-N-(3-(trifluoromethyl)bicyclo[1.1.1]pentan-1-yl)benzamide], the pEC50 was 5.48. Work on `O=C(NC12CC(C(F)(F)F)(C1)C2)c1ccc(F)cc1NS(=O)(=O)c1ccc(S(=O)(=O)C2CC2)cc1` [Example 28, 2-((4-(cyclopropylsulfonyl)phenyl)sulfonamido)-4-fluoro-N-(3-(trifluoromethyl)bicyclo[1.1.1]pentan-1-yl)benzamide] yielded a pEC50 of 5.56. Compound `Cn1cc(S(=O)(=O)Nc2cc(C(F)(F)F)ccc2C(=O)NC23CC(C(F)(F)F)(C2)C3)cn1` [Example 19, 2-((1-methyl-1H-pyrazole)-4-sulfonamido)-4-(trifluoromethyl)-N-(3-(trifluoromethyl)bicyclo[1.1.1]pentan-1-yl)benzamide] has a pEC50 of 5.19. With `CC(C)(C)S(=O)(=O)Nc1ccc(Cl)cc1C(=O)NC12CC(c3ccccc3)(C1)C2` [Example 83, 5-chloro-2-((1,1-dimethylethyl)sulfonamido)-N-(3-phenylbicyclo[1.1.1]pentan-1-yl)benzamide] the pEC50 was 5.27. For `CC(C)(C)S(=O)(=O)Nc1ccc(C(F)(F)F)cc1C(=O)NC12CCC(C#N)(CC1)C2` [Example 172, N-(4-cyanobicyclo[2.2.1]heptan-1-yl)-2-((1,1-dimethylethyl)sulfonamido)-5-(trifluoromethyl)benzamide], the pEC50 was 5.78. `O=C(NC12CCC(C(F)(F)F)(CC1)CC2)c1cc(Cl)ccc1NS(=O)(=O)C1CCS(=O)(=O)CC1` [Example 207, 5-chloro-2-((1,1-dioxidotetrahydro-2H-thiopyran)-4-sulfonamido)-N-(4-(trifluoromethyl)bicyclo[2.2.2]octan-1-yl)benzamide] was tested, and the pEC50 was 5.09. Compound `N#CC1CCN(S(=O)(=O)Nc2ccc(C(F)(F)F)cc2C(=O)NC23CCC(C#N)(CC2)CC3)CC1` [Example 233, N-(4-cyanobicyclo[2.2.2]octan-1-yl)-2-((4-cyanopiperidine)-1-sulfonamido)-5-(trifluoromethyl)benzamide] has a pEC50 of 5.32. Work on `CC(C)(C)c1ccc(S(=O)(=O)Nc2cc(S(C)(=O)=O)ccc2C(=O)NC23CC(C(F)(F)F)(C2)C3)cc1` [Example 16, 2-((4-(tert-butyl)phenyl)sulfonamido)-4-(methylsulfonyl)-N-(3-(trifluoromethyl)bicyclo[1.1.1]pentan-1-yl)benzamide] yielded a pEC50 of 5.26. `CCS(=O)(=O)Nc1cc(F)c(F)cc1C(=O)NC12CCC(C#N)(CC1)CC2` [Example 216, N-(4-cyanobicyclo[2.2.2]octan-1-yl)-4,5-difluoro-2-(ethylsulfonamido)benzamide] showed a pEC50 of 4.77. Work on `N#CCCS(=O)(=O)Nc1ccc(Cl)cc1C(=O)NC12CC(C(F)(F)F)(C1)C2` [Example 228, 5-chloro-2-((2-cyanoethyl)sulfonamido)-N-(3-(trifluoromethyl)bicyclo[1.1.1]pentan-1-yl)benzamide] yielded a pEC50 of 5.47. In the case of `CCS(=O)(=O)c1ccc(S(=O)(=O)Nc2cc(C(F)(F)F)ccc2C(=O)NC23CC(C(F)(F)F)(C2)C3)cc1` [Example 24, 2-((4-(ethylsulfonyl)phenyl)sulfonamido)-4-(trifluoromethyl)-N-(3-(trifluoromethyl)bicyclo[1.1.1]pentan-1-yl)benzamide], the pEC50 was 5.48. `CS(=O)(=O)c1ccc(NS(=O)(=O)c2ccc(S(F)(F)(F)(F)F)cc2)c(C(=O)NC23CC(C(F)(F)F)(C2)C3)c1` [Example 150, 5-(methylsulfonyl)-2-((4-(pentafluoro-λ^6-sulfanyl)phenyl)sulfonamido)-N-(3-(trifluoromethyl)bicyclo[1.1.1]pentan-1-yl)benzamide] was tested, and the pEC50 was ≤ 4.70. Work on `CS(=O)(=O)Nc1ccc(Cl)cc1C(=O)NC12CCC(C#N)(CC1)CC2` [Example 213, 5-chloro-N-(4-cyanobicyclo[2.2.2]octan-1-yl)-2-(methylsulfonamido)benzamide] yielded a pEC50 of 4.09. `CC(C)(C)S(=O)(=O)Nc1ccc(C#N)cc1C(=O)NC12CC(C(F)(F)F)(C1)C2` [Example 97, 5-cyano-2-((1,1-dimethylethyl)sulfonamido)-N-(3-(trifluoromethyl)bicyclo[1.1.1]pentan-1-yl)benzamide] gave a pEC50 of 5.84. `CS(=O)(=O)c1ccc(S(=O)(=O)Nc2cc(Cl)c(Cl)cc2C(=O)NC23CC(c4ccccc4)(C2)C3)cc1` [Example 93, 4,5-dichloro-2-((4-(methylsulfonyl)phenyl)sulfonamido)-N-(3-phenylbicyclo[1.1.1]pentan-1-yl)benzamide] gave a pEC50 of 5.58. `N#CC12CC(NC(=O)c3ccc(C(F)(F)F)cc3NS(=O)(=O)c3ccccc3)(C1)C2` [Example 41, N-(3-cyanobicyclo[1.1.1]pentan-1-yl)-2-(phenylsulfonamido)-4-(trifluoromethyl)benzamide] gave a pEC50 of 5.66. For `CS(=O)(=O)Nc1ccc(C(F)(F)F)cc1C(=O)NC12CCC(F)(CC1)CC2` [Example 82, N-(4-fluorobicyclo[2.2.2]octan-1-yl)-2-(methylsulfonamido)-5-(trifluoromethyl)benzamide], the pEC50 was 5.20. Work on `CCCS(=O)(=O)Nc1ccc(C#N)cc1C(=O)NC12CCC(C#N)(CC1)CC2` [Example 104, 5-cyano-N-(4-cyanobicyclo[2.2.2]octan-1-yl)-2-(propylsulfonamido)benzamide] yielded a pEC50 of 4.43. `CN(C)c1ccc(S(=O)(=O)Nc2cc(C(F)(F)F)ccc2C(=O)NC23CC(C(F)(F)F)(C2)C3)cc1` [Example 102, 2-((4-(dimethylamino)phenyl)sulfonamido)-4-(trifluoromethyl)-N-(3-(trifluoromethyl)bicyclo[1.1.1]pentan-1-yl)benzamide] showed a pEC50 of 5.62. `CS(=O)(=O)N1C2CCC1CC(NC(=O)c1ccc(F)cc1NS(=O)(=O)CCC(F)(F)F)C2` (stereo not drawn) [Example 217, 4-fluoro-N-(8-(methylsulfonyl)-8-azabicyclo[3.2.1]octan-3-yl)-2-((3,3,3-trifluoropropyl)sulfonamido)benzamide] was tested, and the pEC50 was 3.95. `Cc1ncc(S(=O)(=O)Nc2cc(C(F)(F)F)ccc2C(=O)NC23CC(C(F)(F)F)(C2)C3)s1` [Example 62, 2-((2-methylthiazole)-5-sulfonamido)-4-(trifluoromethyl)-N-(3-(trifluoromethyl)bicyclo[1.1.1]pentan-1-yl)benzamide] gave a pEC50 of 5.82. `NC(=O)c1ccc(S(=O)(=O)Nc2cc(C(F)(F)F)ccc2C(=O)NC23CC(C(F)(F)F)(C2)C3)cc1` [Example 53, 2-((4-carbamoylphenyl)sulfonamido)-4-(trifluoromethyl)-N-(3-(trifluoromethyl)bicyclo[1.1.1]pentan-1-yl)benzamide] showed a pEC50 of 4.34. With `CC(C)(C)S(=O)(=O)Nc1ccc(C(F)(F)F)cc1C(=O)NC12CCC(O)(CC1)CC2` [Example 171, 2-((1,1-dimethylethyl)sulfonamido)-N-(4-hydroxybicyclo[2.2.2]octan-1-yl)-5-(trifluoromethyl)benzamide] the pEC50 was 3.95. For `N#CC1CN(S(=O)(=O)Nc2ccc(C(F)(F)F)cc2C(=O)NC23CC(C(F)(F)F)(C2)C3)C1` [Example 234, 2-((3-cyanoazetidine)-1-sulfonamido)-5-(trifluoromethyl)-N-(3-(trifluoromethyl)bicyclo[1.1.1]pentan-1-yl)benzamide], the pEC50 was 5.41. With `O=C(NC12CC(c3ccccc3)(C1)C2)c1ccc(C(F)(F)F)cc1NS(=O)(=O)c1ccc(S(=O)(=O)C(F)F)cc1` [Example 44, 2-((4-((difluoromethyl)sulfonyl)phenyl)sulfonamido)-N-(3-phenylbicyclo[1.1.1]pentan-1-yl)-4-(trifluoromethyl)benzamide] the pEC50 was 5.94. Work on `CS(=O)(=O)Nc1ccc(C(F)(F)F)cc1C(=O)NC12CC(C1)C2` [Example 212, N-(bicyclo[1.1.1]pentan-1-yl)-2-(methylsulfonamido)-5-(trifluoromethyl)benzamide] yielded a pEC50 of 5.06. `CC(C)S(=O)(=O)Nc1ccc(C(F)(F)F)cc1C(=O)NC12CC(Cl)(C1)C2` [Example 70, N-(3-chlorobicyclo[1.1.1]pentan-1-yl)-2-((1-methylethyl)sulfonamido)-5-(trifluoromethyl)benzamide] gave a pEC50 of 6.23. `CN(C)S(=O)(=O)Nc1ccc(C(F)(F)F)cc1C(=O)NC12CC(C(F)(F)F)(C1)C2` [Example 189, 2-((N,N-dimethylsulfamoyl)amino)-5-(trifluoromethyl)-N-(3-(trifluoromethyl)bicyclo[1.1.1]pentan-1-yl)benzamide] was tested, and the pEC50 was 6.29. `O=C(NC12CC(C(F)(F)F)(C1)C2)c1ccc(C(F)(F)F)cc1NS(=O)(=O)c1ccc(N2CCCS2(=O)=O)cc1` [Example 29, 2-((4-(1,1-dioxidoisothiazolidin-2-yl)phenyl)sulfonamido)-4-(trifluoromethyl)-N-(3-(trifluoromethyl)bicyclo[1.1.1]pentan-1-yl)benzamide] gave a pEC50 of 5.06.
